pIC50: −log10 of the molar value.
Columns and labels:
[1] = system: LTB4 synthesis in whole human blood; assay: Human blood LTB4 inhibition assay; type: cell-based; settings: for inhibition at 10 µM: Homo sapiens, compounds at 10 µM, calcium ionophore stimulated, ELISA, error in parentheses
Experimental: Whole human blood was obtained from healthy volunteers from within the Student Health Center. These studies were approved by the UCSC Institutional Review Board (IRB) and informed consent was obtained from all donors before blood draw. The whole blood was dispensed in 150 µL samples followed by addition of inhibitor or control (vehicle, DMSO), and incubated for 15 min at 37°C. The mixture was then stimulated by introduction of the calcium ionophore, […], (freshly diluted from a 50 mM DMSO stock to 1.5 mM in Hanks balanced salt solution), and incubated for 30 min at 37°C. Samples were then centrifuged at 1,500 rpm (300 g) for 10 min at 4°C and the supernatant diluted between 20 and 50-fold (batch dependent) for LTB4 detection, using an ELISA detection kit (Cayman Chemicals Inc.).

[2] = biological target: T1, Human reticulocyte 15-lipoxygenase-1 (15-LOX-1) (Homo sapiens, UniProt P16050); assay: Lipoxygenase UV-based inhibitor assay, 15-LOX-1; type: biochemical; settings: 10 µM LA, pH 7.5
T1 construct: His6 (N); made in house
T1 sequence (P16050 1-662): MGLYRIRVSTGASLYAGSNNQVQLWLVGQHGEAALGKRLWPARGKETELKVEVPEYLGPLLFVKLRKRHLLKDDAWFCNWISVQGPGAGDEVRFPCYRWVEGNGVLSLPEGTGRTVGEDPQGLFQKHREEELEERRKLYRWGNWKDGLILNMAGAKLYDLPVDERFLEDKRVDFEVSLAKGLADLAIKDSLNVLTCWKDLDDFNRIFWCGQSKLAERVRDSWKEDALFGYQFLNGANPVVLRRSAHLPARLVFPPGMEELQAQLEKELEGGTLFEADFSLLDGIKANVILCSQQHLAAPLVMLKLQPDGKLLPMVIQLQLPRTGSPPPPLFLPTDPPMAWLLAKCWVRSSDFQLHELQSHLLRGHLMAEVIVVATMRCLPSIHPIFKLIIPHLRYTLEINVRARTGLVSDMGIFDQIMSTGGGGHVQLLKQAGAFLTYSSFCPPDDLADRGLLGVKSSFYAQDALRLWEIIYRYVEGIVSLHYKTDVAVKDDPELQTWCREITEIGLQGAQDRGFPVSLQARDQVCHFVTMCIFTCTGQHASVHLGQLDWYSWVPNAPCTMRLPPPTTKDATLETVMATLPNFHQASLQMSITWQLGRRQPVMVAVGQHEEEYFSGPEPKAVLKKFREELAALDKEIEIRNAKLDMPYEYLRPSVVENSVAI
Experimental: (§1) Human leukocyte 5-lipoxygenase was expressed as a non-tagged protein and used as a crude ammonium sulfate protein fraction, as published previously.
(§2) Inhibitor potencies were evaluated through use of the standard UV-based inhibitor assay. The initial rates were determined by following the formation of the conjugated diene product at 234 nm (ε = 25,000 M^−1 cm^−1) with a Perkin-Elmer Lambda 40 UV/Vis spectrophotometer at one substrate concentration and varying inhibitor concentrations. All reactions were 2 mL in volume and constantly stirred using a magnetic stir bar at room temperature (23°C), with the enzyme specific buffer conditions outlined in Table 1. The substrate used for the various isozymes was arachidonic acid (AA) for 5-LOX, 12-LOX, and 15-LOX-2 and linoleic acid (LA) for 15-LOX-1, where concentrations were quantitatively determined by allowing the enzymatic reaction to go to completion. IC50 values were obtained by determining the initial rate at various inhibitor concentrations and plotting them against inhibitor concentration, followed by a hyperbolic saturation curve fit. The data used for the saturation curves were performed in duplicate or triplicate, depending on the quality of the data. […] Inhibitors were stored at −20°C in DMSO. […] The solvent isotope effect of the inhibitor IC50 was investigated utilizing the same conditions and methods as stated above. The pH of the buffered D2O was determined as reported previously.

[3] = biological target: T2, human prostate epithelial 15-lipoxygenase-2 (15-LOX-2) (Homo sapiens, UniProt O15296); assay: Lipoxygenase UV-based inhibitor assay, 15-LOX-2; type: biochemical; settings: 30 µM AA, pH 7.5
T2 construct: His6 (N); made in house
T2 sequence (O15296 1-676): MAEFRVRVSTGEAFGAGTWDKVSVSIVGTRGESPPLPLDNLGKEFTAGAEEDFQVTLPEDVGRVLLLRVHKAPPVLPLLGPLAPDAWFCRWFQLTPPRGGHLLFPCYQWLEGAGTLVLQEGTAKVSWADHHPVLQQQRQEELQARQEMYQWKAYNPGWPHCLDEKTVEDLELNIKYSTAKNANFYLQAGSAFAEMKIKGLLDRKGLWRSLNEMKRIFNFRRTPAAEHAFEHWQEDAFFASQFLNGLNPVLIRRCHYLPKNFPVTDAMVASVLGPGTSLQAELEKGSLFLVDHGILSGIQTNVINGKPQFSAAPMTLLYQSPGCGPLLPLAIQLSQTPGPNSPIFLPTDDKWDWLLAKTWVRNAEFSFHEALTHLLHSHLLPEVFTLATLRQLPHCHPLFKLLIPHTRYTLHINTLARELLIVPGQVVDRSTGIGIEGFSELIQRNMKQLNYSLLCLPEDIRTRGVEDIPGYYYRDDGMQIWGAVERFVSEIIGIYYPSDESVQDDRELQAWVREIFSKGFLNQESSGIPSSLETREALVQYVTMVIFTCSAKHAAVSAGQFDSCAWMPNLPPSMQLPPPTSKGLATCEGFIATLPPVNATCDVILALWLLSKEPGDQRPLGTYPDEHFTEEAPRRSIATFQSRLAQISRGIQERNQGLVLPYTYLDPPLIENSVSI
Experimental: as §1, §2

| pIC50 [2] | pIC50 [3] | SMILES | inhibition at 10 µM [1] [%] | greater potency than ketoconazole in whole blood ([1]; whole human blood) [fold] |
| --- | --- | --- | --- | --- |
| < 3.82 | < 3.82 | CC(C)(C)OC(=O)N1CCN(c2ccc(NCc3ccc(-c4ccc(C#N)cc4)o3)cc2)CC1 [Compound 1] | ~50 |  |
| < 4.30 | < 4.30 | CC(=O)N1CCN(c2ccc(NCc3ccc(-c4cccc(Cl)c4)o3)cc2)CC1 [Compound 13] | ~50 |  |
| < 4.60 | 5.00 | N#Cc1ccc(-c2ccc(CNc3ccc(N4CCCCC4)cc3)o2)cc1 [Compound 14] |  |  |
| < 4.00 |  | Cc1cc(C2CCCCC2)n(O)c(=O)c1 [ciclopirox, reference compound] | 34 |  |
| < 3.82 | < 3.82 | CC(=O)N1CCN(c2ccc(NCC3COC(Cn4ccnc4)(c4ccc(Cl)cc4Cl)O3)cc2)CC1 (centres unmarked) [ketaminazole (16), ketaminazole] | 45 | 2 |
| < 3.82 | < 3.82 | CC[C@](O)(c1nnc(NCc2ccc3c(-c4ccc(F)cc4)cc(=O)oc3c2)o1)C(F)(F)F [setileuton, reference compound] | 100 |  |

| SMILES | pIC50 [2] | pIC50 [3] | inhibition at 10 µM [1] [%] | greater potency than ketoconazole in whole blood ([1]; whole human blood) [fold] |
| --- | --- | --- | --- | --- |
| CC(=O)N1CCN(c2ccc(OCC3COC(Cn4ccnc4)(c4ccc(Cl)cc4Cl)O3)cc2)CC1 (centres unmarked) [ketoconazole, reference compound] | < 4.30 | < 3.82 | 25 |  |

Reference: article PMC3691235, “Discovery of a Novel Dual Fungal CYP51/Human 5-Lipoxygenase Inhibitor: Implications for Anti-Fungal Therapy” (PLoS ONE, 2013)
